According to patent publication US5281604A, “Angiotensin II receptor blocking 2,3,6-substituted quinazolinones” (American Cyanamid Company, priority 1993, dated 1994):

Each compound was assayed against T1, Angiotensin II Receptor (Bos taurus, UniProt P25104) (assay: Receptor Binding Assay: displacement of [125I](Sar1,Ile8)AngII from beef adrenal cortex microsomal membranes). Conditions: 60 min room temperature.
T1 construct: beef adrenal glands are processed as follows: fresh adrenal glands received on crushed ice are cleaned of fatty tissues; tissue Maxwell-Cohen (local slaughter house); host or cells: beef adrenal cortex, microsomal membranes (100,000×g pellet)
T1 sequence (P25104 1-359): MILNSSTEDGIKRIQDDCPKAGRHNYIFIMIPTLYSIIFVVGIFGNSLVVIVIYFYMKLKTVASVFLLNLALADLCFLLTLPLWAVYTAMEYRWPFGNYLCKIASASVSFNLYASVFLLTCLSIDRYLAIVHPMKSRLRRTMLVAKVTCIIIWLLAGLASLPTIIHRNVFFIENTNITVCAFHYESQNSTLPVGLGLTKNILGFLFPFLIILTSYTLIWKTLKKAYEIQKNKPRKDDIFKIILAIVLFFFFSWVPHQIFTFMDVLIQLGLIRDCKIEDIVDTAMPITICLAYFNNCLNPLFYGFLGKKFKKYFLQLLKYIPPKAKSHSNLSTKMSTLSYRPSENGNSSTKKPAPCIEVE
Source text: Beef adrenals are obtained from a local slaughter house (Maxwell-Cohen).
[^125 I](Sar^1,Ile^8)AngII, S.A. 2200 Ci/mmole, is purchased from Dupont (NEN®, Boston, Mass.). All unlabeled AngII analogs, Dimethylsulfoxide (DMSO), nucleotides, bovine serum albumin (BSA) are purchased from Sigma Chemical Co., St. Louis, Mo. U.S.A.
Approximately sixteen (16) to twenty (20) beef adrenal glands are processed as follows: fresh adrenal glands received on crushed ice are cleaned of fatty tissues and the tough membranes encapsulating the glands are removed and discarded. The brownish tissue forming the adrenal cortex is scraped off and finely minced with scissors before homogenization. Care is taken to avoid contamination with medullary tissue during dissection. The scraped cortices are suspended in twenty volumes of an ice-cold buffer medium consisting of 10 mM Tris.HCl (pH 7.4 at 22° C.) and containing 1.0 mM EDTA and 0.2M sucrose. Unless otherwise indicated, all subsequent operations are done at 4° C. […] The homogenate is centrifuged first at low speed (3,000×g) for 10 min. The resulting pellet is discarded and the supernatant fluid recentrifuged at 10,000×g for 15 minutes to give a P2 pellet. This P2 pellet is discarded and the liquid phase is carefully decanted off in clean centrifuge tubes and recentrifuged at high speed (100,000×g) for 60 min. The translucent final pellet is harvested and combined in a small volume (20-50.0 ml) of 50.0 mM Tris.HCl buffer, pH 7.2. A 100 ul aliquot is withdrawn and the protein content of the preparation is determined by the Lowry's method (Lowry, O. H., Rosebrough, N. F., Farr, A. L. and Randall, R. J., Protein measurement with Folin phenol reagent. J. Biol. Chem., […], 265-275, 1951). The pelleted membrane is reconstituted in 50.0 mM Tris.HCl buffer containing 0.1 mM of phenylmethylsulfonyl fluoride (PMSF) to give approximately a protein concentration of 2.5 mg per ml of tissue suspension. The membrane preparation is finally aliquoted in 1.0 ml volumes and stored at -70° C. until use in the binding assays.
The binding of [^125 I](Sar^1.Ile^8)AngII to microsomal membranes is initiated by the addition of reconstituted membranes (1:10 vols.) in freshly made 50.0 mM Tris.HCl buffer, pH 7.4 containing 0.25% heat inactivated bovine serum albumin (BSA): 80 ul membrane protein (10 to 20 ug/assay) to wells already containing 100 ul of incubation buffer (as described above) and 20 ul [^125 I](Sar^1,Ile^8)AmgII (Specific Activity, 2200 Ci/mmole) Non-specific binding is measured in the presence of 1.0 uM unlabeled (Sar^1,Ile^8)AngII, added in 20 ul volume. Specific binding for [^125 I](Sar^1,Ile^8) AngII is greater than 90%. In competition studies, experimental compounds are diluted in dimethylsulfoxide (DMSO) and added in 20 ul to wells before the introduction of tissue membranes. This concentration of DMSO is found to have no negative effects on the binding of [^ 125I] (Sar^1,Ile^8) AngII to the membranes. Assays are performed in triplicate. The wells are left undisturbed for 60 min. at room temperature. […] Presoaking the filter sheet in 0.1% polyethyleneimine in normal saline (PEI/Saline) greatly reduces the radioactivity retained by the filter blanks. […] The filters are removed from the filter grid and counted in a Parkard® Cobra Gamma Counder for 1 min. […] The binding data are analyzed by the non-linear interactive "LUNDON-1" program (LUNDON SOFTWARE Inc., Cleveland, Ohio U.S.A.).

| IC50 [nM] | SMILES |
| --- | --- |
| 50 | CCCCc1nc2ccc([C@H]3OC[C@H]4[C@@H]3ON3[C@@H]4CCC3(C)C)cc2c(=O)n1Cc1ccc(-c2ccccc2-c2nnn[nH]2)cc1 (relative stereo) [Example 7, (1α, 3aα, 8aβ, 8bα)-2-Butyl-6-(octahydro-6,6-dimethylfuro[3,4-d]pyrrolo[1,2-b]isoxazol-1-yl)-3-[[2'-(1H-tetrazol-5-yl)[1,1'-biphenyl]-4-yl]methyl]-4 (3H)-quinazolinone] |
| 76 | CCCCc1nc2ccc(C3CC4C(O3)ON(c3ccccc3)C4c3ccccc3)cc2c(=O)n1Cc1ccc(-c2ccccc2-c2nnn[nH]2)cc1 (stereo not drawn) [Example 10, (3α, 3aβ, 5β, 6aβ)-2-Butyl-6-(hexahydro-2,3-diphenylfuro[3,2-d]isoxazol-5-yl)-3-[[2'-(1H-tetrazol-5-yl)[1,1'-biphenyl]-4-yl]methyl]-4(3H)-quinazolinone] |
| 100 | CCCCc1nc2ccc(C3CC4C(c5ccc(C)cc5)=NOC4O3)cc2c(=O)n1Cc1ccc(-c2ccccc2-c2nnn[nH]2)cc1 (stereo not shown) [Example 12] |
| 31.9 | CCCCc1nc2ccc(C3CC4C(O3)ON3C4CCC3(C)C)cc2c(=O)n1Cc1ccc(-c2ccccc2-c2nnn[nH]2)cc1 (stereo not shown) [Example 14] |
